From BindingDB's records for doi:10.1021/jm010841w (University of Bristol, 2002)

Legend:
[1] = Maximum % effect of standard (DAMGO) was reported against Opioid receptor mu 1
[2] = Maximum percentage effect of standard Opioid receptor delta 1 (Cl-DPDPE)

| SMILES | EC50 [1] [nM] | EC50 [2] [nM] |
| --- | --- | --- |
| Cc1ccc(-c2cn(Cc3ccccc3)c3c2C[C@@]2(O)C4Cc5ccc(O)c6c5[C@@]2(CCN4CC2CC2)[C@H]3O6)cc1 [7-benzyl-18-cyclopropylmethyl-5-(4-methylphenyl)-10-oxa-7,18-diazahexacyclo[9.9.1.01,9.02,17.04,8.015,21]henicosa-4(8),5,11,13,15(21)-pentaene-2,12-diol] | 34 |  |
| CN1CC[C@]23c4c5ccc(O)c4O[C@H]2c2c(c(-c4ccccc4)cn2Cc2ccccc2)C[C@@]3(O)C1C5 [7-benzyl-18-methyl-5-phenyl-10-oxa-7,18-diazahexacyclo[9.9.1.01,9.02,17.04,8.015,21]henicosa-4(8),5,11,13,15(21)-pentaene-2,12-diol] |  | 41 |
